Measured values reported in patent US10323045B2, “Thienopyrimidine derivatives as NIK inhibitors” (Janssen Pharmaceutica NV, priority 2014, dated 2019).

Experiments:
L-363 cells = experiment: Antiproliferative activity on L-363 cells (CellTiter-Glo); format: cell-based; conditions: Homo sapiens, 72 hr of treatment, averaged values
Protocol: (§1) Determination of Antiproliferative Activity on LP-1, L-363 and JJN-3 Cells
(§2) All compounds tested were dissolved in DMSO and further dilutions were made in culture medium. Final DMSO concentration was 0.3% (v/v) in cell proliferation assays.
(§3) Viability was assessed using CellTiter-Glo cell viability assay kit (Promega). The human LP-1, L-363 and JJN-3 cells (DSMZ) were cultured in RPMI 1640 medium supplemented with 2 mM L-glutamine, and 10% fetal calf serum (PAA). Cells were routinely kept as suspension cells at 37° C. in a humidified 5% C02 atmosphere. Cells were passaged at a seeding density of 0.2×10^6/ml twice a week. Cells were seeded in black tissue culture treated 96-well plates (Perkin Elmer). Densities used for plating ranged from 2,000 to 6,000 cells per well in a total volume of 75 μl medium. After twenty four hours, drugs and/or solvents were added (25 μl) to a final volume of 100 μl. Following 72 hr of treatment plates were removed from the incubator and allowed to equilibrate to room temperature for approx 10 min. 100 μl CellTiter-Glo reagent was added to each well that was then covered (Perkin Elmer Topseal) and shaken on plate shaker for 10 min. Luminescence was measured on a HTS Topcount (Perkin Elmer). Within an experiment, the results for each treatment were the mean of 2 replicate wells.
(§4) For initial screening purposes, compounds were tested using a 9 point dilution curve (serial 1:3 dilutions). For each experiment, controls (containing no drug) and a blank incubation (containing cells read at the time of compound addition) were run in parallel. The blank value was subtracted from all control and sample values. For each sample, the mean value for cell growth (in relative light units) was expressed as a percentage of the mean value for cell growth of the control.

JJN-3 cells = experiment: Antiproliferative activity on JJN-3 cells (CellTiter-Glo); format: cell-based; conditions: Homo sapiens, 72 hr of treatment, averaged values
Protocol: as §1, §2, §3, §4

[1] = target: Recombinant Human NF-kappaB-inducing Kinase (NIK/MAP3K14) (Homo sapiens, UniProt Q99558); experiment: Inhibition of auto-phosphorylation of recombinant human NIK/MAP3K14 (AlphaScreen); format: biochemical; conditions: GST-tagged NIK/MAP3K14 0.2 nM, 25 microM ATP, 1 h at 25° C.; averaged over all measurements on all batches; read-out: Alpha-Screen IC50
Chain of Recombinant Human NF-kappaB-inducing Kinase (NIK/MAP3K14) (Q99558 whole entry): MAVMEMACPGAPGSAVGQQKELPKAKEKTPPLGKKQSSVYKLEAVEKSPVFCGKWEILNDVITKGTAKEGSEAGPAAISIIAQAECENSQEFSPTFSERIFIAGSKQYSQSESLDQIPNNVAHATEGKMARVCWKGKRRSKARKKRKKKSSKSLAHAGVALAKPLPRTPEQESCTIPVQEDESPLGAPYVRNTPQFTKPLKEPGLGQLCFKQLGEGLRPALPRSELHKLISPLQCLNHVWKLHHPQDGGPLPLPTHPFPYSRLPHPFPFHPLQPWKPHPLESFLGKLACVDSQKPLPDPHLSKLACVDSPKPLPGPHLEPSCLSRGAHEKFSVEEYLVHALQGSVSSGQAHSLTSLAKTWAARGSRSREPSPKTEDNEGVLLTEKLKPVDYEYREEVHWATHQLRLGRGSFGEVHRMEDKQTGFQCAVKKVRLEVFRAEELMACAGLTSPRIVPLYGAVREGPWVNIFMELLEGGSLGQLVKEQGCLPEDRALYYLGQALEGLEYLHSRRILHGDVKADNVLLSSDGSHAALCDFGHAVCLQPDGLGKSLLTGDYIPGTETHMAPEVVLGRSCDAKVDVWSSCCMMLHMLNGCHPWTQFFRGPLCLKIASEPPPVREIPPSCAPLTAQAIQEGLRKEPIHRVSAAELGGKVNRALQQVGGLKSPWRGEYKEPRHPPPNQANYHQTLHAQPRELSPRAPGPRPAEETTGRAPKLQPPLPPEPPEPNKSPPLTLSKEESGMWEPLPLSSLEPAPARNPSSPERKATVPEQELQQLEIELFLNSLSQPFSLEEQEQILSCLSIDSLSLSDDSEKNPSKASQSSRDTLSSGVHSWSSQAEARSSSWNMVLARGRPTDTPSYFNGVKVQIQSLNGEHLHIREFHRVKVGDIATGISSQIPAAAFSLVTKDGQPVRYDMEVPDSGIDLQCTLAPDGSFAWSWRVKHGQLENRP
Protocol: Inhibition of Auto-phosphorylation of Recombinant Human NF-kappaB-inducing Kinase (NIK/MAP3K14) Activity (AlphaScreen®)
NIK/MAP3K14 auto-phosphorylation activity was measured using the AlphaScreen® (αscreen) format (Perkin Elmer). All compounds tested were dissolved in dimethyl sulfoxide (DMSO) and further dilutions were made in assay buffer. Final DMSO concentration was 1% (v/v) in assays. Assay buffer was 50 mM Tris pH 7.5 containing 1 mM EGTA (ethylene glycol tetraacetic acid), 1 mM DTT (dithiothreitol), 0.1 mM Na3VO4, 5 mM MgCl2, 0.01% Tween® 20. Assays were carried out in 384 well Alphaplates (Perkin Elmer). Incubations consisted of compound, 25 microM Adenosine-5′-triphosphate (ATP), and 0.2 nM NIK/MAP3K14. Incubations were initiated by addition of GST-tagged NIK/MAP3K14 enzyme, carried out for 1 h at 25° C. and terminated by addition of stop buffer containing anti-phospho-IKK Ser176/180 antibody. Protein A Acceptor and Glutathione-Donor beads were added before reading using an EnVision® Multilabel Plate Reader (Perkin Elmer). Signal obtained in the wells containing blank samples was subtracted from all other wells and IC50's were determined by fitting a sigmoidal curve to % inhibition of control versus Log10 compound concentration.

LP-1 cells = experiment: Antiproliferative activity on LP-1 cells (CellTiter-Glo); format: cell-based; conditions: Homo sapiens, 72 hr of treatment, averaged values
Protocol: as §1, §2, §3, §4

[2] = system: P-IKKα levels in L363 cells; experiment: Effect of compounds on P-IKKα levels in L363 cells; format: cell-based; conditions: Homo sapiens, L-363; L363 cells with BAFF, 2 hr treatment, P-IKKα by sandwich immuno-assay (Mesoscale); averaged values; read-out: IKKα Cellular IC50
Protocol: Effect of Compounds on P-IKKα Levels in L363 Cells
All compounds tested were dissolved in DMSO and further dilutions were made in culture medium. Final DMSO concentration was 1% (v/v) in cell assays. The human L363 cells (ATCC) were cultured in RPMI 1640 medium supplemented with GlutaMax and 10% fetal calf serum (PAA). Cells were routinely maintained at densities of 0.2×10^6 cells per ml-1×10^6 cells per ml at 37° C. in a humidified 5% C02 atmosphere. Cells were passaged twice a week splitting back to obtain the low density. Cells were seeded in 96 well plates (Nunc 167008) at 2×10^6 per ml media in a volume of 75 μl per well plus 25 μl 1 μg/ml recombinant human B-cell activating factor (BAFF/BLyS/TNFSF13B). Seeded cells were incubated at 37° C. in a humidified 5% CO2 atmosphere for 24 hr. Drugs and/or solvents were added (20 μl) to a final volume of 120 μl. Following 2 hr treatment plates were removed from the incubator and cell lysis was achieved by the addition of 30 μl 5× lysis buffer followed by shaking on a plate shaker at 4° C. for 10 min. At the end of this incubation lysed cells were centrifuged at 800×g for 20 min at 4° C. and the lysate was assessed for P-IKKα levels by sandwich immuno-assay carried out in anti-rabbit antibody coated Mesoscale plates. Within an experiment, the results for each treatment were the mean of 2 replicate wells.
For initial screening purposes, compounds were tested using an 8 point dilution curve (serial 1:3 dilutions). For each experiment, controls (containing MG132 and BAFF but no test drug) and a blank incubation (containing MG132 and BAFF and 10 μM ADS 125117, a test concentration known to give full inhibition) were run in parallel. The blank incubation value was subtracted from all control and sample values. To determine the IC50 a sigmoidal curve was fitted to the plot of % inhibition of control P-IKKα levels versus Log10 compound concentration.

Compound | EC50 (L-363 cells) [nM] | EC50 (JJN-3 cells) [nM] | IC50 [1] [nM] | EC50 (LP-1 cells) [nM] | IC50 [2] [nM]
CC(O)(C#Cc1cc2c(-c3nc(N)nc4ccsc34)cn(C3CN(C4CC4)C3)c2cn1)C1CC1 (single isomer, unassigned) [Compound 11] | 461 | 652 | 26 | 918 | –
CC(C)(O)C#Cc1cc2c(ccn2-c2nc(N)nc3ccsc23)cn1 [Compound 1] | 979 | 764 | 15 | 2220 | 104
CC(C)(O)C#Cc1cc2c(cn1)c(CCC(C)(C)O)cn2-c1nc(N)nc2ccsc12 [Compound 2] | 2800 | 1470 | 9 | 10300 | 339
CN1CCC(c2cn(-c3nc(N)nc4ccsc34)c3cc(C#CC(C)(C)O)ncc23)CC1 [Compound 3] | 258 | 540 | 140 | 3980 | –
CC(C)c1cn(-c2nc(N)nc3ccsc23)c2cc(C#CC(C)(C)O)ncc12 [Compound 4] | 1580 | 1740 | 26 | 3130 | –
COCCCn1cc(-c2nc(N)nc3ccsc23)c2cc(C#CC(C)(C)O)ncc21 [Compound 5] | 395 | 299 | 19 | 1680 | 64
COCCCc1cn(-c2nc(N)nc3ccsc23)c2cc(C#CC(C)(C)O)ncc12 [Compound 6] | 1040 | 580 | 15 | 3430 | –
CC(C)(O)C#Cc1cc2c(-c3nc(N)nc4ccsc34)cn(C3COC3)c2cn1 [Compound 7] | 696 | 1060 | 32 | > 30000 | –
CC(O)(C#Cc1cc2c(-c3nc(N)nc4ccsc34)cn(C3CCN(C4CC4)CC3)c2cn1)C1CC1 (centres unmarked) [Compound 8] | 4 | 16 | 112 | 38 | –
[2H]C([2H])([2H])C(O)(C#Cc1cc2c(-c3nc(N)nc4ccsc34)cn(C3CCN(C4CC4)CC3)c2cn1)C([2H])([2H])[2H] [Compound 9] | 7 | 24 | 20 | 85 | –
[2H]C([2H])([2H])C(O)(C#Cc1cc2c(-c3nc(N)nc4ccsc34)cn(C3CN(C4CC4)C3)c2cn1)C([2H])([2H])[2H] [Compound 10] | 610 | 494 | 52 | 1480 | –
[2H]C([2H])([2H])C(O)(C#Cc1cc2c(-c3nc(N)nc4ccsc34)cn(C3CCCN(CC)C3)c2cn1)C([2H])([2H])[2H] (centres unmarked) [Compound 12] | 243 | 289 | 66 | 783 | –
[2H]C([2H])([2H])C(O)(C#Cc1cc2c(-c3nc(N)nc4ccsc34)cn(CC3CCCN3CC)c2cn1)C([2H])([2H])[2H] (centres unmarked) [Compound 13] | 36 | 60 | 58 | 75 | –
[2H]C([2H])([2H])C(O)(C#Cc1cc2c(-c3nc(N)nc4ccsc34)cn(C3CCN(CC)C3)c2cn1)C([2H])([2H])[2H] (centres unmarked) [Compound 14] | 122 | 145 | 38 | 655 | –
